Source: patent publication US11312727B1, “Macrocyclic flu endonuclease inhibitors” (Janssen BioPharma, Inc., priority 2018, dated 2022)

Tests used:
[1] = system: Influenza strain A549 A/WSN/33 (H1N1); test: microbe, parasite or virus in culture; type: cell-based; conditions: Influenza A virus, A549, 20 h, A549 cells, influenza A/WSN/33 (H1N1), 20 hours incubation; read-out: A549_A(H1N1) EC50
in vitro = conditions: human, CC50, uninfected A549 cells, CellTiter-Glo

For `C[C@@H]1C/C=C/COc2c(F)cccc2[C@H](c2ccccc2)N2CN1C(=O)c1c(O)c(=O)ccn12` (single isomer, unassigned) [Compound 100BB, (2*S,9*R,*E)-33-fluoro-15-hydroxy-9-methyl-2-phenyl-12,13,14,16-tetrahydro-11H-4-oxa-1(1,3)-pyrido[2,1-f][1,2,4]triazina-3(1,2)-benzenacyclononaphan-6-ene-14,16-dione], the EC50 [1] was 1160 nM and the CC50 (in vitro) was 32500 nM.
Compound `O=C1c2c(O)c(=O)ccn2N2CN1C/C=C\COc1c(ccc(Cl)c1Cl)[C@H]2c1ccccc1` (single isomer, unassigned) [Compound 103A, (18*R,Z)-3,4-dichloro-12-hydroxy-18-phenyl-6,9-dihydro-18H-10,17-methanobenzo[b]pyrido[1,2-f][1]oxa[5,6,9]triazacyclotridecine-11,13-dione] has an EC50 [1] greater than 100 nM and a CC50 (in vitro) greater than 200 nM.
In the case of `O=C1c2c(O)c(=O)ccn2N2CN1C/C=C\COc1c(ccc(Cl)c1Cl)[C@@H]2c1ccccc1` (single isomer, unassigned) [Compound 103B, (18*S,Z)-3,4-dichloro-12-hydroxy-18-phenyl-6,9-dihydro-18H-10,17-methanobenzo[b]pyrido[1,2-f][1]oxa[5,6,9]triazacyclotridecine-11,13-dione], the EC50 [1] is reported as 3.1 nM and the CC50 (in vitro) is reported as greater than 200 nM.
Work on `O=C1c2c(O)c(=O)ccn2N2CN1C/C=C\COc1c(F)cccc1[C@@H]2c1cccc(F)n1` (single isomer, unassigned) [Compound 104A, (18*R,*Z)-4-fluoro-18-(6-fluoropyridin-2-yl)-12-hydroxy-6,9-dihydro-18H-10,17-methanobenzo[b]pyrido[1,2-f][1]oxa[5,6,9]triazacyclotridecine-11,13-dione] yielded an EC50 [1] of 10.7 nM and a CC50 (in vitro) greater than 200 nM.
`O=C1c2c(O)c(=O)ccn2N2CN1C/C=C\COc1c(F)cccc1[C@H]2c1cccc(F)n1` (single isomer, unassigned) [Compound 104B, (18*S,*Z)-4-fluoro-18-(6-fluoropyridin-2-yl)-12-hydroxy-6,9-dihydro-18H-10,17-methanobenzo[b]pyrido[1,2-f][1]oxa[5,6,9]triazacyclotridecine-11,13-dione] showed an EC50 [1] greater than 100 nM and a CC50 (in vitro) greater than 200 nM.
Compound `CC[C@H]1C/C=C/COc2c(F)cccc2[C@@H](c2ccccc2)N2CN1C(=O)c1c(O)c(=O)ccn12` (single isomer, unassigned) [Compound 105AA, (2*R,9*S,*E)-9-ethyl-33-fluoro-15-hydroxy-2-phenyl-12,13,14,16-tetrahydro-11H-4-oxa-1(1,3)-pyrido[2,1-f][1,2,4]triazina-3(1,2)-benzenacyclononaphan-6-ene-14,16-dione] has an EC50 [1] of 2.2 nM and a CC50 (in vitro) greater than 200 nM.
In the case of `CC[C@@H]1C/C=C/COc2c(F)cccc2[C@@H](c2ccccc2)N2CN1C(=O)c1c(O)c(=O)ccn12` (single isomer, unassigned) [Compound 105AB, (2*R,9*R,*E)-9-ethyl-33-fluoro-15-hydroxy-2-phenyl-12,13,14,16-tetrahydro-11H-4-oxa-1(1,3)-pyrido[2,1-f][1,2,4]triazina-3(1,2)-benzenacyclononaphan-6-ene-14,16-dione], the EC50 [1] is reported as 1.9 nM and the CC50 (in vitro) is reported as greater than 200 nM.
`CC[C@H]1C/C=C/COc2c(F)cccc2[C@H](c2ccccc2)N2CN1C(=O)c1c(O)c(=O)ccn12` (single isomer, unassigned) [Compound 105BA, (2*S,9*S,*E)-9-ethyl-33-fluoro-15-hydroxy-2-phenyl-12,13,14,16-tetrahydro-11H-4-oxa-1(1,3)-pyrido[2,1-f][1,2,4]triazina-3(1,2)-benzenacyclononaphan-6-ene-14,16-dione] gave an EC50 [1] greater than 100 nM and a CC50 (in vitro) greater than 200 nM.
`CC[C@@H]1C/C=C/COc2c(F)cccc2[C@H](c2ccccc2)N2CN1C(=O)c1c(O)c(=O)ccn12` (single isomer, unassigned) [Compound 105BB, (2*S,9*R,*E)-9-ethyl-33-fluoro-15-hydroxy-2-phenyl-12,13,14,16-tetrahydro-11H-4-oxa-1(1,3)-pyrido[2,1-f][1,2,4]triazina-3(1,2)-benzenacyclononaphan-6-ene-14,16-dione] showed an EC50 [1] greater than 100 nM and a CC50 (in vitro) greater than 200 nM.
`O=C1c2c(O)c(=O)ccn2N2CN1C1(/C=C/COc3ccccc3[C@H]2c2ccccc2)CCC1` (single isomer, unassigned) [Compound 106A, (18′*R,E)-12′-hydroxy-18′-phenyl-6′H,18′H-spiro[cyclobutane-1,9′-[10,17]methanobenzo[b]pyrido[1,2-f][1]oxa[5,6,9]triazacyclotridecine]-11′,13′-dione] showed an EC50 [1] of 3.5 nM and a CC50 (in vitro) greater than 200 nM.
With `O=C1c2c(O)c(=O)ccn2N2CN1C1(/C=C/COc3ccccc3[C@@H]2c2ccccc2)CCC1` (single isomer, unassigned) [Compound 106B, (18′*S,E)-12′-hydroxy-18′-phenyl-6′H,18′H-spiro[cyclobutane-1,9′-[10,17]methanobenzo[b]pyrido[1,2-f][1]oxa[5,6,9]triazacyclotridecine]-11′,13′-dione] the EC50 [1] was greater than 100 nM and the CC50 (in vitro) was greater than 200 nM.
With `O=C1c2c(O)c(=O)ccn2N2CN1C1(/C=C/COc3cccc4c3[C@@H]2c2ccccc2SC4)CC1` (single isomer, unassigned) [Compound 107A, (17a′*R,*E)-12′-hydroxy-2′,17a′-dihydro-6′H-spiro[cyclopropane-1,9′-[3,4](epiprop[1]en[1]yl[3]ylidene)[10,17]methanobenzo[6,7]thiepino[4,5-c]pyrido[1,2-f][1]oxa[5,6,9]triazacyclotridecine]-11′,13′-dione] the EC50 [1] was greater than 100 nM and the CC50 (in vitro) was greater than 200 nM.
Work on `O=C1c2c(O)c(=O)ccn2N2CN1C1(/C=C/COc3cccc4c3[C@H]2c2ccccc2SC4)CC1` (single isomer, unassigned) [Compound 107B, (17a′*S,*E)-12′-hydroxy-2′,17a′-dihydro-6′H-spiro[cyclopropane-1,9′-[3,4](epiprop[1]en[1]yl[3]ylidene)[10,17]methanobenzo[6,7]thiepino[4,5-c]pyrido[1,2-f][1]oxa[5,6,9]triazacyclotridecine]-11′,13′-dione] yielded an EC50 [1] of 1 nM and a CC50 (in vitro) greater than 100 nM.
For `O=C1c2c(O)c(=O)ccn2N2CN1C1(/C=C/COc3cc(F)c(F)c4c3[C@@H]2c2ccccc2SC4)CC1` (single isomer, unassigned) [Compound 108A, (17a′*R,*E)-24′,25′-difluoro-12′-hydroxy-2′,17a′-dihydro-6′H-spiro[cyclopropane-1,9′-[3,4](epiprop[1]en[1]yl[3]ylidene)[10,17]methanobenzo[6,7]thiepino[4,5-c]pyrido[1,2-f][1]oxa[5,6,9]triazacyclotridecine]-11′,13′-dione], the EC50 [1] was 840 nM and the CC50 (in vitro) was 22600 nM.
Compound `O=C1c2c(O)c(=O)ccn2N2CN1C1(/C=C/COc3cc(F)c(F)c4c3[C@H]2c2ccccc2SC4)CC1` (single isomer, unassigned) [Compound 108B, (17a′*S,*E)-24′,25′-difluoro-12′-hydroxy-2′,17a′-dihydro-6′H-spiro[cyclopropane-1,9′-[3,4](epiprop[1]en[1]yl[3]ylidene)[10,17]methanobenzo[6,7]thiepino[4,5-c]pyrido[1,2-f][1]oxa[5,6,9]triazacyclotridecine]-11′,13′-dione] has an EC50 [1] of 0.2 nM and a CC50 (in vitro) greater than 50 nM.
`O=C1c2c(O)c(=O)ccn2N2CN1C1(/C=C\COc3cc(F)c(F)c4c3[C@@H]2c2ccccc2SC4)CC1` (single isomer, unassigned) [Compound 108C] gave an EC50 [1] greater than 100 nM and a CC50 (in vitro) greater than 200 nM.
For `O=C1c2c(O)c(=O)ccn2N2CN1C1(/C=C\COc3cc(F)c(F)c4c3[C@H]2c2ccccc2SC4)CC1` (single isomer, unassigned) [Compound 108D], the EC50 [1] was 0.9 nM and the CC50 (in vitro) was greater than 200 nM.
For `COC[C@@H]1N2C/C=C\COc3ccccc3[C@@H](c3ccccc3)N1n1ccc(=O)c(O)c1C2=O` (single isomer, unassigned) [Compound 109A, (18*R,19*R,*Z)-12-hydroxy-19-(methoxymethyl)-18-phenyl-6,9-dihydro-18H-10,17-methanobenzo[b]pyrido[1,2-f][1]oxa[5,6,9]triazacyclotridecine-11,13-dione], the EC50 [1] was 6.6 nM and the CC50 (in vitro) was greater than 200 nM.
`COC[C@H]1N2C/C=C\COc3ccccc3[C@H](c3ccccc3)N1n1ccc(=O)c(O)c1C2=O` (single isomer, unassigned) [Compound 109B, (18*S,19*S,*Z)-12-hydroxy-19-(methoxymethyl)-18-phenyl-6,9-dihydro-18H-10,17-methanobenzo[b]pyrido[1,2-f][1]oxa[5,6,9]triazacyclotridecine-11,13-dione] showed an EC50 [1] greater than 100 nM and a CC50 (in vitro) greater than 200 nM.
In the case of `Cc1cccc2c1OC/C=C\CN1CN([C@H]2c2ccccc2)n2ccc(=O)c(O)c2C1=O` (single isomer, unassigned) [Compound 110A, (18*S,Z)-12-hydroxy-4-methyl-18-phenyl-6,9-dihydro-18H-10,17-methanobenzo[b]pyrido[1,2-f][1]oxa[5,6,9]triazacyclotridecine-11,13-dione], the EC50 [1] is reported as 6.4 nM and the CC50 (in vitro) is reported as greater than 200 nM.
With `Cc1cccc2c1OC/C=C\CN1CN([C@@H]2c2ccccc2)n2ccc(=O)c(O)c2C1=O` (single isomer, unassigned) [Compound 110B, (18*R,Z)-12-hydroxy-4-methyl-18-phenyl-6,9-dihydro-18H-10,17-methanobenzo[b]pyrido[1,2-f][1]oxa[5,6,9]triazacyclotridecine-11,13-dione] the EC50 [1] was greater than 100 nM and the CC50 (in vitro) was greater than 200 nM.
For `O=C1c2c(O)c(=O)ccn2N2CN1CC/C=C/COc1c(ccc(Cl)c1Cl)[C@@H]2c1ccccc1` (single isomer, unassigned) [Compound 111A, (2*S,*E)-33,34-dichloro-15-hydroxy-2-phenyl-12,13,14,16-tetrahydro-11H-4-oxa-1(1,3)-pyrido[2,1-f][1,2,4]triazina-3(1,2)-benzenacyclononaphan-6-ene-14,16-dione], the EC50 [1] was 4.3 nM and the CC50 (in vitro) was greater than 200 nM.
